Experimental data: patent publication US10272117B2, “Methods of using an activator of cereblon for neural cell expansion and the treatment of central nervous system disorders” (Celgene Corporation, priority 2014, dated 2019)

Key:
zebrafish = test: Resistance to thalidomide in brain development (brain thickness to body length); assay type: in vivo
Protocol: To analyze the functional relationship between thalidomide and BRD7, brain development of BRD7-knockdown zebrafish treated with thalidomide was examined and compared with that of normal zebrafish treated with thalidomide. […] FIGS. 12A and 12B show the normal zebrafish treated with 400 μM thalidomide. FIGS. 12C and 12D show the BRD7-knockdown zebrafish treated with 400 μM thalidomide. FIGS. 12A′ and 12C′ show the brain regions of the normal zebrafish treated with 400 μM thalidomide. FIGS. 12B′ and 12D′ show the brain regions of the BRD7-knockdown zebrafish treated with 400 μM thalidomide. […] The percentages of brain thickness to body length in the normal and the BRD7-knockdown zebrafish, with or without thalidomide treatments were also measured. […] The brain size of the BRD7-knockdown larvae incubated in thalidomide is 98.8% of that of the BRD7-knockdown larvae incubated in the absence of thalidomide.

zebrafish embryos = test: Whole-mount in situ hybridization of gene expression in zebrafish embryos; assay type: in vivo
Protocol: This process was carried out basically in accordance with the technique of Thisse et al. See High-resolution In Situ Hybridization to Whole-mount Zebrafish Embryos, Nat. Protcol., 3 (1) 59-69, (2008). The differences were that 5 mg/ml Torula yeast RNA was used as a blocker in the probe hybridization solution, and that 0.5% Blocking Reagent (Roche) was used as a blocker in the antibody reaction solution. The cDNA of the genes used as the probe (the six3.2 gene, the emx1 gene, the pax2.1 gene, the foxg1 gene, and the otx2 gene) were presents of the original provider. As the probe for the lhx2 gene, the one initially cloned by Ando was used. For the probes of the CRBN gene and related genes, primers were designed based on the EST database of zebrafish, and the probes were cloned from a cDNA library.
Expression of Pou5f1 (Oct3/4), Klf4, c-Myc, and HuC (Elavl3) in zebrafish embryos was analyzed by in situ hybridization. The embryos were fixed with 4% paraformaldehyde for 1 hour at room temperature and rinsed with phosphate buffered saline (PBS). The fixed embryos were refixed with 100% methanol and placed at −80° C. for over 12 hours. The embryos were defixed by rinsing with PBS, and the skin was digested with pronase (2 mg/ml), followed by refixation and defixation, and prehybridized in HYB* buffer (50% formamide, 5×SSC, 10 mM Citric acid, 0.1% Tween 20) for 15 minutes and in HYB+(added as 5 mg/ml torula (yeast) RNA, 50 μg/ml heparin to HYB*) for 1 hour at 65° C. After addition of 1 ng/μl of DIG (digoxigenin)-labeled probe, hybridization was performed for overnight at 65° C. After hybridization, the embryos were washed by 50% formamide in 2×SSC for 30 minutes (twice), 2×SSC for 15 minutes, 0.2×SSC for 30 minutes (twice) at 65° C. Then blocking treatment was done by 0.5% purified casein in PBSTw (PBS plus 0.1% Tween 20) at room temperature for 1 hour. After that, immunostaining was performed in 1/4000 dilution of anti-DIG Fab-AP fragment in 0.5% purified casein in PBSTw for 4 hours at room temperature.
After washing with PBSTw for 90 minutes, staining was carried out in the presence of substrate of alkaline phosphatase (Nitro blue tetrazolium and 5-bromo 4-chloro 3-indolyl phosphate) in 100 mM Tris pH 9.5, 50 mM MgCl2, 100 mM NaCl, and 0.1% Tween-20. Reaction was stopped by rapid exchange of reaction buffer to PBSTw and cleaned with glycerol serials (30%, 50%, and 70% in PBS).
Expression of Ascl1a and Pou3f2b in CRBN-overexpressing and Ikaros-knockdown zebrafish embryos was analyzed by in situ hybridization. The embryos were fixed with 4% paraformaldehyde for 1 hour at room temperature and rinsed with phosphate buffered saline (PBS). The fixed embryos were refixed with 100% methanol and placed at −80° C. for over 12 hours. The embryos were defixed by rinsing with PBS, and the skin was digested with pronase (2 mg/ml), followed by refixation and defixation, and prehybridized in HYB* buffer (50% formamide, 5×SSC, 10 mM Citric acid, 0.1% Tween 20) for 15 minutes and in HYB+(added as 5 mg/ml torula (yeast) RNA, 50 μg/ml heparin to HYB*) for 1 hour at 65° C. After addition of 1 ng/μl of DIG (digoxigenin)-labeled probe, hybridization was performed for overnight at 65° C. After hybridization, the embryos were washed by 50% formamide in 2×SSC for 30 minutes twice, 2×SSC for 15 minutes, 0.2×SSC for 30 minutes twice at 65° C. Then blocking treatment was done by 0.5% purified casein in PBSTw (PBS plus 0.1% Tween 20) at room temperature for 1 hour. After that, immunostaining was performed in 1/4000 dilution of anti-DIG Fab-AP fragment in 0.5% purified casein in PBSTw for 4 hours at room temperature.
Expression of Sox2, Pou5f1 (Oct3/4), c-Myc, and Klf4 in zebrafish embryos was analyzed in untreated and CRBN-overexpressing zebrafish embryos by in situ hybridization. Overexpression was performed as follows: single-cell stage embryos were microinjected with 250 ng/μl of capped mRNA synthesized in vitro. […]

Substance	brain size relative to normal larvae (zebrafish; in 400 μM of thalidomide, n=12)	brain development of BRD7-knockdown larvae (zebrafish; in thalidomide solution (400 μM))	brain size relative to normal larvae (zebrafish; normal E3 medium, without thalidomide treatment)	expression of Pou5f1 (Oct3/4) in the second and fourth rhombomeres in the hindbrain (zebrafish embryos; 10 hpf and 11 hpf)	expression of Huc in the brain and spinal cord (zebrafish embryos; 11 hpf)	number of HuC-positive neural progenitor cells in the brain and spinal cord (zebrafish embryos; 15 hpf)	number of the telencephalic neurons and the spinal cord neurons (zebrafish embryos; 16 hpf)	expression of Klf4 in the rostral portion of the neural tube (zebrafish embryos; 18 hpf)	expression of c-Myc in the tectal proliferation zone and ciliary marginal zone (zebrafish embryos; 30 hpf)	expression of Ascl1a (zebrafish embryos; 25 hpf)	expression of Pou3f2b (zebrafish embryos; 26 hpf)
5′-TGTGTTTCTTGTGCTTTTTGCCCAT-3′ (all phosphorodiamidate morpholino (PMO)) [BRD7-knockdown, 25-mer antisense morpholino oligonucleotide (AMO) used for the BRD7 gene knockdown]	140.0%	developed almost normally	120.7%	increased	increased	increased	increased	increased	clearly increased		
5′-TTCCTGTGCCTCCTCAGTCTCCATC-3′ (all phosphorodiamidate morpholino (PMO)) [Ikaros-knockdown, 25-mer antisense morpholino oligonucleotide (AMO) used for the Ikaros gene knockdown]										remarkably increased	increased
